# Test system: not listed separately
# Assay: In vitro metabolic stability in hepatic microsomes
# Type: in vitro ADME, rat
# Settings: 10 min, liver microsomes, NADPH, compound 5 μM
# Protocol: Compounds, each at 5 μM, were incubated for specified times at 37° C. with rat liver microsomes (1 mg protein/ml; Sigma-Aldrich, St. Louis, Mo.) in potassium phosphate buffer (100 mM) containing 1 mM NADPH. The mixture was then chilled on ice, and 0.5 ml of ice-cold ethyl acetate was added.
row,SMILES,% Remaining after 10 min incubation with liver microsomes
1,"COCCCNc1nc2c(S(=O)(=O)c3ccccc3)nnn2c2ccsc12 [Compound 2ab, {3-benzenesulfonyl-thieno[2,3-e][1,2,3]triazolo[1,5-a]pyrimidin-5-yl}-3-methoxypropyl-amine]",27%
2,"COc1ccc(CNc2nc3c(S(=O)(=O)c4ccc(C)cc4)nnn3c3ccsc23)cc1 [Compound 2ad, [3-(4-methyl-benzenesulfonyl)-thieno[2,3-e][1,2,3]triazolo[1,5-a]pyrimidin-5-yl]-(4-methoxy-benzyl)-amine]",80%
3,"Cc1ccc(S(=O)(=O)c2nnn3c2nc(NCc2ccc(F)cc2)c2sccc23)cc1 [Compound 2aj, [3-(4-methyl-benzenesulfonyl)-thieno[2,3-e][1,2,3]triazolo[1,5-a]pyrimidin-5-yl]-(4-fluoro-benzyl)-amine]",86%

# Same assay, conditions: hepatic microsomes
row,SMILES,metabolic stability (in words)
1,"COc1ccc(CNc2nc3c(S(=O)(=O)c4ccc(C)cc4)nnn3c3ccsc23)cc1 [Compound 2ad, [3-(4-methyl-benzenesulfonyl)-thieno[2,3-e][1,2,3]triazolo[1,5-a]pyrimidin-5-yl]-(4-methoxy-benzyl)-amine]",improved metabolic stability
2,"Cc1ccc(S(=O)(=O)c2nnn3c2nc(NCc2ccc(F)cc2)c2sccc23)cc1 [Compound 2aj, [3-(4-methyl-benzenesulfonyl)-thieno[2,3-e][1,2,3]triazolo[1,5-a]pyrimidin-5-yl]-(4-fluoro-benzyl)-amine]",improved metabolic stability

# Target: T1, UT-B (Mus musculus, UniProt Q8VHL0)
# T1 sequence (Q8VHL0 1-384): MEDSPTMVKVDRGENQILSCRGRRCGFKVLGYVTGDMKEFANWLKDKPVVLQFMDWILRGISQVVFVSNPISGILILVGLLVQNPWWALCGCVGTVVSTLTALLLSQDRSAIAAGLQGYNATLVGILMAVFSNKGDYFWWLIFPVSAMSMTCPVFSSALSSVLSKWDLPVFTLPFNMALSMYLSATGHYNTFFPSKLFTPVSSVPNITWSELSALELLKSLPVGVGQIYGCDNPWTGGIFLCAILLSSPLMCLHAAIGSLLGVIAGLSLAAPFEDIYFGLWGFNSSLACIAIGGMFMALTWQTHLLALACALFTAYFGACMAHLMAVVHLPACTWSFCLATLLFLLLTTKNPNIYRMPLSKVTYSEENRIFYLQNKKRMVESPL
# Assay: Erythrocyte lysis assay of UT-B inhibition
# Type: cell-based
# Set-up: Screening was performed using mouse erythrocytes, which strongly express UT-B; endogenous in cells; host or cells: erythrocytes in whole blood of wild-type CD1 mice
# Settings: not given
# Protocol: Screening was performed using mouse erythrocytes, which strongly express UT-B and are highly water permeable because the cells also express aquaporin-1 (AQP1) water channels. The screening method involved assay of erythrocyte lysis in response to a large, outwardly directed gradient of acetamide, a urea analog that is transported efficiently by UT-B. A large, outwardly directed gradient of acetamide causes transient cell swelling, but little cell lysis, because UT-B-facilitated acetamide efflux limits water influx (see FIG. 1A). UT-B inhibition prevents acetamide efflux, allowing unopposed cell swelling and consequent cell lysis, which was recorded by reduced near-infrared light absorption at 710 nm.
# Primary screening was done using a collection of 100,000 diverse, drug-like compounds from commercial sources (ChemDiv, San Diego, Calif.; Asinex, Winston-Salem, N.C.). […] Vigorous mixing was achieved by repeated pipetting. Erythrocyte lysis was quantified by absorbance at 710 nm wavelength, made within 5 min after hypo-osmolar shock. […] For analysis of structure-activity relationships >900 commercially available analogs (ChemDiv and Asinex) were tested.
row,SMILES,IC50
1,CCc1ccc(S(=O)(=O)c2nnn3c2nc(N2CCOCC2)c2sccc23)cc1 [Compound 2bq],5.71 µM

# Same assay, conditions: Table 1, commercially available analogues, erythrocyte lysis assay; read-out: IC50
row,SMILES,IC50
1,NC(=O)C1CCN(c2nc3c(S(=O)(=O)c4ccccc4)nnn3c3ccsc23)CC1 [Compound 2aa],7.66 µM
2,"COCCCNc1nc2c(S(=O)(=O)c3ccccc3)nnn2c2ccsc12 [Compound 2ab, {3-benzenesulfonyl-thieno[2,3-e][1,2,3]triazolo[1,5-a]pyrimidin-5-yl}-3-methoxypropyl-amine]",4.35 µM
3,"Cc1ccc(S(=O)(=O)c2nnn3c2nc(NCc2ccco2)c2sccc23)cc1 [Compound 2ac, furan-2-ylmethyl-[3-(4-methyl-benzenesulfonyl)-thieno[2,3-e][1,2,3]triazolo[1,5-a]pyrimidin-5-yl]-amine]",2.15 µM
4,"COc1ccc(CNc2nc3c(S(=O)(=O)c4ccc(C)cc4)nnn3c3ccsc23)cc1 [Compound 2ad, [3-(4-methyl-benzenesulfonyl)-thieno[2,3-e][1,2,3]triazolo[1,5-a]pyrimidin-5-yl]-(4-methoxy-benzyl)-amine]",1.66 µM
5,"Cc1ccc(S(=O)(=O)c2nnn3c2nc(NCC2CCCO2)c2sccc23)cc1 (stereo not drawn) [Compound 2ae, tetrahydrofuran-2-ylmethyl-[3-(4-methyl-benzenesulfonyl)-thieno[2,3-e][1,2,3]triazolo[1,5-a]pyrimidin-5-yl]-amine]",5.74 µM
6,"Cc1ccc(S(=O)(=O)c2nnn3c2nc(NCCCOC(C)C)c2sccc23)cc1 [Compound 2af, {3-[4-methyl-benzenesulfonyl]-thieno[2,3-e][1,2,3]triazolo[1,5-a]pyrimidin-5-yl}-3-(1-methylethoxyl)propyl-amine]",11.7 µM
7,"Cc1ccc(S(=O)(=O)c2nnn3c2nc(NC(C)c2ccccc2)c2sccc23)cc1 (stereo not drawn) [Compound 2ag, [3-(4-methyl-benzenesulfonyl)-thieno[2,3-e][1,2,3]triazolo[1,5-a]pyrimidin-5-yl]-(1-phenyl-1-methyl)methyl-amine]",11.2 µM
8,"COc1cccc(CNc2nc3c(S(=O)(=O)c4ccc(C)cc4)nnn3c3ccsc23)c1 [Compound 2ah, [3-(4-methyl-benzenesulfonyl)-thieno[2,3-e][1,2,3]triazolo[1,5-a]pyrimidin-5-yl]-(3-methoxy-benzyl)-amine]",2.75 µM
9,"COCCNc1nc2c(S(=O)(=O)c3ccc(C)cc3)nnn2c2ccsc12 [Compound 2ai, {3-[4-methyl-benzenesulfonyl]-thieno[2,3-e][1,2,3]triazolo[1,5-a]pyrimidin-5-yl}-2-methoxyethyl-amine]",2.87 µM
10,"Cc1ccc(S(=O)(=O)c2nnn3c2nc(NCc2ccc(F)cc2)c2sccc23)cc1 [Compound 2aj, [3-(4-methyl-benzenesulfonyl)-thieno[2,3-e][1,2,3]triazolo[1,5-a]pyrimidin-5-yl]-(4-fluoro-benzyl)-amine]",0.733 µM
11,CCN1CCN(c2nc3c(S(=O)(=O)c4ccc(C)cc4)nnn3c3ccsc23)CC1 [Compound 2ak],7.88 µM
12,Cc1ccc(S(=O)(=O)c2nnn3c2nc(NC2CCCC2)c2sccc23)cc1 [Compound 2al],6.38 µM
13,CCN(CC)c1nc2c(S(=O)(=O)c3ccc(C)c(C)c3)nnn2c2ccsc12 [Compound 2ap],2.49 µM
14,Cc1ccc(S(=O)(=O)c2nnn3c2nc(N2CCC(C(N)=O)CC2)c2sccc23)cc1C [Compound 2aq],2.12 µM
15,Cc1ccc(S(=O)(=O)c2nnn3c2nc(NC(C)C)c2sccc23)cc1C [Compound 2av],2.19 µM
16,"Cc1ccc(S(=O)(=O)c2nnn3c2nc(NCCCOC(C)C)c2sccc23)cc1C [Compound 2ax, {3-[3,4-dimethyl-benzenesulfonyl]-thieno[2,3-e][1,2,3]triazolo[1,5-a]pyrimidin-5-yl}-3-(1-methylethoxyl)propyl-amine]",2.48 µM
17,"COc1cccc(CNc2nc3c(S(=O)(=O)c4ccc(C)c(C)c4)nnn3c3ccsc23)c1 [Compound 2ay, [3-(3,4-dimethyl-benzenesulfonyl)-thieno[2,3-e][1,2,3]triazolo[1,5-a]pyrimidin-5-yl]-(3-methoxy-benzyl)-amine]",3.77 µM
18,"COCCNc1nc2c(S(=O)(=O)c3ccc(C)c(C)c3)nnn2c2ccsc12 [Compound 2ba, {3-[3,4-dimethyl-benzenesulfonyl]-thieno[2,3-e][1,2,3]triazolo[1,5-a]pyrimidin-5-yl}-2-methoxyethyl-amine]",2.5 µM

row,SMILES,IC50
1,Cc1ccc(S(=O)(=O)c2nnn3c2nc(NC2CCCCC2)c2sccc23)cc1C [Compound 2bb],8.19 µM
2,"Cc1ccc(S(=O)(=O)c2nnn3c2nc(NCc2ccc(F)cc2)c2sccc23)cc1C [Compound 2be, [3-(3,4-dimethyl-benzenesulfonyl)-thieno[2,3-e][1,2,3]triazolo[1,5-a]pyrimidin-5-yl]-(4-fluoro-benzyl)-amine]",5.64 µM
3,"COCCCNc1nc2c(S(=O)(=O)c3ccc(Cl)cc3)nnn2c2ccsc12 [Compound 2bj, {3-[4-chloro-benzenesulfonyl]-thieno[2,3-e][1,2,3]triazolo[1,5-a]pyrimidin-5-yl}-3-methoxypropyl-amine]",2.31 µM
4,"CC(C)c1ccc(S(=O)(=O)c2nnn3c2nc(NCC2CCCO2)c2sccc23)cc1 (stereo not drawn) [Compound 2bk, tetrahydrofuran-2-ylmethyl-[3-(4-isopropyl-benzenesulfonyl)-thieno[2,3-e][1,2,3]triazolo[1,5-a]pyrimidin-5-yl]-amine]",2.66 µM
5,"CCOCCCNc1nc2c(S(=O)(=O)c3ccc(C(C)C)cc3)nnn2c2ccsc12 [Compound 2bl, {3-[4-isopropyl-benzenesulfonyl]-thieno[2,3-e][1,2,3]triazolo[1,5-a]pyrimidin-5-yl}-3-ethoxylpropyl-amine]",4.08 µM
6,CCc1ccc(S(=O)(=O)c2nnn3c2nc(NC2CCCC2)c2sccc23)cc1 [Compound 2bz],1.54 µM
7,CCc1ccc(S(=O)(=O)c2nnn3c2nc(N2CCN(C)CC2)c2sccc23)cc1 [Compound 2cc],0.59 µM
8,CCc1ccc(S(=O)(=O)c2nnn3c2nc(N2CCN(CC)CC2)c2sccc23)cc1 [Compound 2cd],11.9 µM
9,CCc1ccc(S(=O)(=O)c2nnn3c2nc(NCCN(C)C)c2sccc23)cc1 [Compound 2ch],8.46 µM
10,Cc1ccc(C)c(S(=O)(=O)c2nnn3c2nc(N2CCC(C(N)=O)CC2)c2sccc23)c1 [Compound 2ci],3.34 µM
11,"CCOCCCNc1nc2c(S(=O)(=O)c3cc(C)ccc3C)nnn2c2ccsc12 [Compound 2ck, {3-[2,5-dimethyl-benzenesulfonyl]-thieno[2,3-e][1,2,3]triazolo[1,5-a]pyrimidin-5-yl}-3-ethoxypropyl-amine]",9.85 µM
12,"Cc1ccc(C)c(S(=O)(=O)c2nnn3c2nc(NCCCOC(C)C)c2sccc23)c1 [Compound 2cl, {3-[2,5-dimethyl-benzenesulfonyl]-thieno[2,3-e][1,2,3]triazolo[1,5-a]pyrimidin-5-yl}-3-(1-methylethoxyl)propyl-amine]",2.06 µM
13,"Cc1ccc(C)c(S(=O)(=O)c2nnn3c2nc(NC(C)c2ccccc2)c2sccc23)c1 (stereo not drawn) [Compound 2cm, [3-(2,5-dimethyl-benzenesulfonyl)-thieno[2,3-e][1,2,3]triazolo[1,5-a]pyrimidin-5-yl]-(1-phenyl-1-methyl)methyl-amine]",0.702 µM
14,"Cc1ccc(C)c(S(=O)(=O)c2nnn3c2nc(NCc2ccc(F)cc2)c2sccc23)c1 [Compound 2cp, [3-(2,5-dimethyl-benzenesulfonyl)-thieno[2,3-e][1,2,3]triazolo[1,5-a]pyrimidin-5-yl]-(4-fluoro-benzyl)-amine]",0.671 µM
15,"Cc1ccc(C)c(S(=O)(=O)c2nnn3c2nc(NCc2ccccc2)c2sccc23)c1 [Compound 2cq, [3-(2,5-dimethyl-benzenesulfonyl)-thieno[2,3-e][1,2,3]triazolo[1,5-a]pyrimidin-5-yl]-benzyl-amine]",1.65 µM
16,"Cc1ccc(C)c(S(=O)(=O)c2nnn3c2nc(NCc2ccco2)c2sccc23)c1 [Compound 2cs, furan-2-ylmethyl-[3-(2,5-dimethyl-benzenesulfonyl)-thieno[2,3-e][1,2,3]triazolo[1,5-a]pyrimidin-5-yl]-amine]",2.66 µM
17,NC(=O)C1CCN(c2nc3c(S(=O)(=O)c4cccc(Cl)c4)nnn3c3ccsc23)CC1 [Compound 2cv],3.14 µM
18,"O=S(=O)(c1cccc(Cl)c1)c1nnn2c1nc(NCc1cccs1)c1sccc12 [Compound 2cw, {3-[3-chloro-benzenesulfonyl]-thieno[2,3-e][1,2,3]triazolo[1,5-a]pyrimidin-5-yl}-thiophen-2-ylmethyl-amine]",2.08 µM
